The pKi is the Ki on a negative log10 scale, so that one unit is a factor of ten.

The values below come from patent publication US7358268B2, “Imidazole derivatives as factor Xa inhibitors” (Sanofi-Aventis Deutschland GmbH, priority 2002, dated 2008).

In this test the target is T1, human factor Xa (Homo sapiens, UniProt P00742).
T1 construct: 25 μl human factor Xa (Enzyme Research Laboratories, Inc; South Bend, Ind.) in TBS-PEG; purchased Enzyme Research Laboratories, Inc; South Bend, Ind
Briefly: Factor Xa assay (chromogenic, purified enzyme). Type of test: biochemical. The conditions noted are these: inhibition constant for factor Xa; chromogenic substrate S-2765 140 μM, enzyme 0.5 nM, 25° C., pH 7.8; Ki calculated from IC50 (Ki=IC50/{1+(substrate concentration/Km)}); read-out: Ki(FXa). Here is the method: The ability of the compounds of the formula I to inhibit factor Xa or factor VIIa or other enzymes like thrombin, plasmin, or trypsin can be assessed by determining the concentration of the compound of the formula I that inhibits enzyme activity by 50%, i. e. the IC50 value, which was related to the inhibition constant Ki. Purified enzymes were used in chromogenic assays. The concentration of inhibitor that causes a 50% decrease in the rate of substrate hydrolysis was determined by linear regression after plotting the relative rates of hydrolysis (compared to the uninhibited control) versus the log of the concentration of the compound of formula I. For calculating the inhibition constant Ki, the IC50 value was corrected for competition with substrate using the formula Ki=IC50/{1+(substrate concentration/Km)} wherein Km is the Michaelis-Menten constant (Chen and Prusoff, Biochem. Pharmacol. 22 (1973), 3099-3108; I. H. Segal, Enzyme Kinetics, 1975, John Wiley & Sons, New York, 100-125; which were incorporated herein by reference). a) Factor Xa Assay
In the assay for determining the inhibition of factor Xa activity TBS-PEG buffer (50 mM Tris-HCl, pH 7.8, 200 mM NaCl, 0.05% (w/v) PEG-8000, 0.02% (w/v) NaN3) was used. The IC50 was determined by combining in appropriate wells of a Costar half-area microtiter plate 25 μl human factor Xa (Enzyme Research Laboratories, Inc.; South Bend, Ind.) in TBS-PEG; 40 μl 10% (v/v) DMSO in TBS-PEG (uninhibited control) or various concentrations of the compound to be tested diluted in 10% (v/v) DMSO in TBS-PEG; and substrate S-2765 (N(α)-benzyloxycarbonyl-D-Arg-Gly-L-Arg-p-nitroanilide; Kabi Pharmacia, Inc.; Franklin, Ohio) in TBS-PEG.
The assay was performed by pre-incubating the compound of formula I plus enzyme for 10 min. Then the assay was initiated by adding substrate to obtain a final volume of 100 μl. The initial velocity of chromogenic substrate hydrolysis was measured by the change in absorbance at 405 nm using a Bio-tek Instruments kinetic plate reader (Ceres UV900HDi) at 25° C. during the linear portion of the time course (usually 1.5 min after addition of substrate). The enzyme concentration was 0.5 nM and substrate concentration was 140 μM.

pKi: −log10 of the molar value.

T1 sequence (P00742 235-488 limits assumed): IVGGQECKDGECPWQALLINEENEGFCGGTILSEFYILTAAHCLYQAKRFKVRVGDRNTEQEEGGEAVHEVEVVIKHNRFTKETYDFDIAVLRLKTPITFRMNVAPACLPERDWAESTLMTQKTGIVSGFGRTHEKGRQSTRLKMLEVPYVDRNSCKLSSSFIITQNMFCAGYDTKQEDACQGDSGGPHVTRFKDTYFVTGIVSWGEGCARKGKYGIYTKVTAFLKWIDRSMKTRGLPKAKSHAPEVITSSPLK
T1 sequence (P00742 41-179 partner limits assumed): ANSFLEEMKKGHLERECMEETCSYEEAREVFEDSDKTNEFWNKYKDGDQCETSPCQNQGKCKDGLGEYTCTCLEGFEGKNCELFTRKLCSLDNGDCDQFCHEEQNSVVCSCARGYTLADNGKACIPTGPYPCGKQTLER

On to `CCOC(=O)c1ncc(C(=O)NC2CCN(C(C)C)CC2)n1Cc1cc(-c2ccc(Cl)s2)on1` [Example 37, 1-[5-(5-Chloro-thiophen-2-yl)-isoxazol-3-ylmethyl]-5-(1-isopropyl-piperidin-4-ylcarbamoyl)-1H-imidazole-2-carboxylic acid ethyl ester], for which the pKi is 8.10.

Consider `CC(C)N1CCC(NC(=O)c2nc(C(=O)N(C)CCO)cn2Cc2cc(-c3ccc(Cl)s3)on2)CC1` [Example 42], for which the pKi is 6.90.

Consider `CC(C)N1CCC(NC(=O)c2nc(C(N)=O)cn2Cc2cc(-c3ccc(Cl)s3)on2)CC1` [Example 41, 1-[5-(5-Chloro-thiophen-2-yl)-isoxazol-3-ylmethyl]-1H-imidazole-2,4-dicarboxylic acid 4-amide 2-[(1-isopropyl-piperidin-4-yl)-amide]], for which the negative logarithm of the Ki (pKi) is 7.34.

As for `CC(C)N1CCC(NC(=O)c2cnc(C3CC3)n2Cc2cc(-c3ccc(Cl)s3)on2)CC1` [Example 11, 3-[5-(5-Chloro-thiophen-2-yl)-isoxazol-3-ylmethyl]-2-cyclopropyl-3H-imidazole-4-carboxylic acid (1-isopropyl-piperidin-4-yl)-amide], the pKi was 8.40.

In the case of `Cc1nc(I)n(Cc2cc(-c3ccc(Cl)s3)on2)c1C(=O)NC1CCN(C(C)C)CC1` [Example 7, 3-[5-(5-Chloro-thiophen-2-yl)-isoxazol-3-ylmethyl]-2-iodo-5-methyl-3H-imidazole-4-carboxylic acid (1-isopropyl-piperidin-4-yl)-amide], the pKi was 9.00.

For `COC1CN(C(=O)c2cn(Cc3cc(-c4ccc(Cl)s4)on3)c(C(=O)NC3CCN(C(C)C)CC3)n2)C1` [Example 48, 1-[5-(5-Chloro-thiophen-2-yl)-isoxazol-3-ylmethyl]-4-(3-methoxy-azetidine-1-carbonyl)-1H-imidazole-2-carboxylic acid (1-isopropyl-piperidin-4-yl)-amide], the pKi is 7.04.

In the case of `COC(=O)c1cn(Cc2cc(-c3ccc(Cl)s3)on2)c(C(=O)NC2CCN(C(C)C)CC2)n1` [Example 40, 1-[5-(5-Chloro-thiophen-2-yl)-isoxazol-3-ylmethyl]-2-(1-isopropyl-piperidin-4-ylcarbamoyl)-1H-imidazole-4-carboxylic acid methyl ester], the negative logarithm of the Ki (pKi) was 7.70.

`Cc1nc(Br)n(Cc2cc(-c3ccc(Cl)s3)on2)c1C(=O)NC1CCN(C(C)C)CC1` [Example 26, 2-Bromo-3-[5-(5-chloro-thiophen-2-yl)-isoxazol-3-ylmethyl]-5-methyl-3H-imidazole-4-carboxylic acid (1-isopropyl-piperidin-4-yl)-amide]: the negative-log Ki (pKi) was 8.52.

Regarding `CC(C)N1CCC(NC(=O)c2cncn2Cc2cc(-c3ccc(Cl)s3)on2)CC1` [Example 1, 3-[5-(5-Chloro-thiophen-2-yl)-isoxazol-3-ylmethyl]-3H-imidazole-4-carboxylic acid (1-isopropyl-piperidin-4-yl)-amide], the pKi was 7.19.

`COC(=O)CCc1cn(Cc2cc(-c3ccc(Cl)s3)on2)c(C(=O)NC2CCN(C(C)C)CC2)n1` [Example 49, 3-[1-[5-(5-Chloro-thiophen-2-yl)-isoxazol-3-ylmethyl]-2-(1-isopropyl-piperidin-4-ylcarbamoyl)-1H-imidazol-4-yl]-propionic acid methyl ester]: the negative-log Ki (pKi) is 7.43.

For `CC(C)N1CCC(NC(=O)c2cnc(-c3c(Cl)cccc3Cl)n2Cc2cc(-c3ccc(Cl)s3)on2)CC1` [Example 15, 3-[5-(5-Chloro-thiophen-2-yl)-isoxazol-3-ylmethyl]-2-(2,6-dichloro-phenyl)-3H-imidazole-4-carboxylic acid (1-isopropyl-piperidin-4-yl)-amide], the pKi is 7.25.

With `Cc1nc(C(N)=O)n(Cc2cc(-c3ccc(Cl)s3)on2)c1C(=O)NC1CCN(C(C)C)CC1` [Example 24, 3-[5-(5-Chloro-thiophen-2-yl)-isoxazol-3-ylmethyl]-5-methyl-3H-imidazole-2,4-dicarboxylic acid 2-amide 4-[(1-isopropyl-piperidin-4-yl)-amide]], the pKi was 7.66.

With `CC(C)N1CCC(NC(=O)c2nc(C(=O)OCC3CC3)cn2Cc2cc(-c3ccc(Cl)s3)on2)CC1` [Example 45, 1-[5-(5-Chloro-thiophen-2-yl)-isoxazol-3-ylmethyl]-2-(1-isopropyl-piperidin-4-ylcarbamoyl)-1H-imidazole-4-carboxylic acid cyclopropylmethyl ester], the pKi is 7.24.

With `COCCc1ncc(C(=O)NC2CCN(C(C)C)CC2)n1Cc1cc(-c2ccc(Cl)s2)on1` [Example 14, 3-[5-(5-Chloro-thiophen-2-yl)-isoxazol-3-ylmethyl]-2-(2-methoxy-ethyl)-3H-imidazole-4-carboxylic acid (1-isopropyl-piperidin-4-yl)-amide], the pKi is 6.40.

On to `CC(C)N1CCC(NC(=O)c2nc(C(=O)N(C)C)cn2Cc2cc(-c3ccc(Cl)s3)on2)CC1` [Example 44, 1-[5-(5-Chloro-thiophen-2-yl)-isoxazol-3-ylmethyl]-1H-imidazole-2,4-dicarboxylic acid 4-dimethylamide 2-[(1-isopropyl-piperidin-4-yl)-amide]], for which the pKi was 6.87.

For the molecule `CC(C)N1CCC(NC(=O)c2c(Cl)nc(-c3ccccc3)n2Cc2cc(-c3ccc(Cl)s3)on2)CC1` [Example 3, 5-Chloro-3-[5-(5-chloro-thiophen-2-yl)-isoxazol-3-ylmethyl]-2-phenyl-3H-imidazole-4-carboxylic acid (1-isopropyl-piperidin-4-yl)-amide], the pKi is 8.15.

Consider `CCc1nc(C)c(C(=O)NC2CCN(C(C)C)CC2)n1Cc1cc(-c2ccc(Cl)s2)on1` [Example 5, 3-[5-(5-Chloro-thiophen-2-yl)-isoxazol-3-ylmethyl]-2-ethyl-5-methyl-3H-imidazole-4-carboxylic acid (1-isopropyl-piperidin-4-yl)-amide], for which the pKi was 7.57.
